US6653354B2, “NMDA antagonist comprising xenon” (priority 1999, dated 2003)
Entries after “also recorded” stand apart in the source; their conditions may differ.

What was measured:
[1] = cited from earlier work
[2] = test system: GABAergic synapses (GABAA receptors) of hippocampal neurons; assay type: cell-based, rat
Procedure: Hippocampal neurons were grown in culture using methods described previously (Segal M M et al, J. Neurophysiol. 1990, 64:1390-1399; Bekkers J M et al, Proc. Natl. Acad. Sci. U.S.A. 1991, 88:7834-7838; Mennerick S et al, J. Neurophysiol. 1995, 73:320-332). Briefly, hippocampi from Sprague Dawley rats (postnatal day 1-3) were dissected, roughly sliced and agitated in a papain-containing solution (20 units ml^−1) for 30 minutes at 37 EC. After washing with enzyme-free solution, the tissue was gently triturated with a fire-polished Pasteur pipette and the cells were plated out at a density of 8-10×10^4 cells ml^−1 and cultured (95% air/5% CO2) at 37° C. Glass coverslips used for culturing the cells were first coated with agarose (0.15% w/v) and then sprayed with a fine mist of poly-D-lysine (PDL) and collagen (0.1 mg ml^−1 PDL and 0.5 mg ml^−1 rat-tail collagen) from a glass micro-atomiser and sterilized by UV exposure. This produced micro-islands of permissive substrate with diameters of between 100 and 1000 μm. At 3-4 days after plating, when the glial cell layer was about 80% confluent, an anti-mitotic agent (cytosine β-D-arabinofuranoside, 5 μM) was added to arrest glial cell proliferation. Neuronal cultures were then allowed to mature for another 4-9 days. We used micro-islands which contained single isolated neurons whose axonal processes and dendritic trees formed multiple self-synapses (autapses). This procedure provided a large population of phenotypically identical monosynaptic connections.
The neurons were voltage-clamped using the whole-cell recording technique (Axopatch 200 amplifier, Axon Instruments, Foster City, Calif.). Electrodes were fabricated from borosilicate glass and typically had resistances of between 3-5 MΩ. Series resistance was compensated by 75-90%. Neurons were voltage-clamped at −60 mV, and synaptic responses were stimulated by a 2 ms depolarising pulse to +20 mV. […] For the synaptic measurements, data were sampled at 50 kHz, filtered at 20 kHz (−3 dB, 8-pole Bessel) and stored on a computer. The extracellular recording solution was (mM) 137 NaCl, 5 KCl, 3 CaCl2, 5 HEPES, 10 glucose, 0.001 glycine, 0.0001 strychnine-HCl, titrated to pH 7.3 with NaOH; and the intracellular (pipette) solution was (mM) 140 KCl, 4 NaCl, 0.5 EGTA, 2 MgATP, 10 HEPES, titrated to pH 7.25 with KOH.
Xenon solutions were prepared by first bubbling pure gases (oxygen, nitrogen or xenon) through fine sintered-glass bubblers in 250- or 500-ml Drechsel bottles filled with extracellular recording saline. […] (To minimise oxidization, the neurotoxins and neurotransmitters were excluded from the fully oxygenated saline.) During bubbling, the solutions were continually stirred at room temperature. These solutions were then mixed to achieve the desired final concentrations of the gases. Our control solutions usually contained 80% of the nitrogen solution and 20% of the oxygen solution, while our test solutions usually contained 80% of the xenon solution and 20% of the oxygen solution. Using a Bunsen water/gas partition coefficient of 0.0965 (Smith R A et al, Biochim. Biophys. Acta 1981, 645:327-338) we calculate that our standard test solution contained 3.4 mM xenon. Xenon (research grade, 99.993% pure) was supplied by BOC gases, Guildford, Surrey, UK. In all cases xenon was pre-applied to the neurons for at least 30 seconds before the initiation of synaptic currents.
In order to obtain an estimate for the total charge transfer, the EPSCs or IPSCs were numerically integrated.

GABAA receptors = target: T1, GABAA receptors (Bos taurus, UniProt P08219+P08220+P22300); experiment: Currents activated by GABA in voltage-clamped PA3 cells stably expressing defined GABA subunits; assay type: cell-based; conditions: 100% xenon
T1 construct: expressed in transfected cells
T1 sequence (P08219 28-456): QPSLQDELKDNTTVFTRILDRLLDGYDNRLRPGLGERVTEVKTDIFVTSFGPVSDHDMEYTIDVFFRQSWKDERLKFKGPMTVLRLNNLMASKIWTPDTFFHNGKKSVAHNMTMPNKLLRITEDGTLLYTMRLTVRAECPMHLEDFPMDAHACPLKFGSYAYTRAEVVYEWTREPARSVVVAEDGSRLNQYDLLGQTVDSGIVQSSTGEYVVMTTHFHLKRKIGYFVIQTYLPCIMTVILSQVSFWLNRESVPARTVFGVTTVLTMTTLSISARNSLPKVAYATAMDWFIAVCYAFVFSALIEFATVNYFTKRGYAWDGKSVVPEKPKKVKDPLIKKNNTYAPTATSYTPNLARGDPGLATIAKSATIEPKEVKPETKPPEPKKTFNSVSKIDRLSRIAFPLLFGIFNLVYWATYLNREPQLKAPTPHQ
T1 sequence (P08220 26-474): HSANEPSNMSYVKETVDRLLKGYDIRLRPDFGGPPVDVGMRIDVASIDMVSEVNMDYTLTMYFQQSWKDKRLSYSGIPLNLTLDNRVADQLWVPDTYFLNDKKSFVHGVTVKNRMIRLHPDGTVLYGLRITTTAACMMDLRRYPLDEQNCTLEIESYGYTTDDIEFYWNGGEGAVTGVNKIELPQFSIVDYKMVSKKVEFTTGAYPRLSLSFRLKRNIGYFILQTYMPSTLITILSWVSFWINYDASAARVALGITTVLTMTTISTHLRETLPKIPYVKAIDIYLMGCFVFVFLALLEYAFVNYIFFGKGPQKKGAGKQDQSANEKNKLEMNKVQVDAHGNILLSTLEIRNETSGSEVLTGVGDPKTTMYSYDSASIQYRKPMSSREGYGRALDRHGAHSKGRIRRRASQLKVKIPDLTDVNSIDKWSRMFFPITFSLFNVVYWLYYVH
T1 sequence (P22300 40-475): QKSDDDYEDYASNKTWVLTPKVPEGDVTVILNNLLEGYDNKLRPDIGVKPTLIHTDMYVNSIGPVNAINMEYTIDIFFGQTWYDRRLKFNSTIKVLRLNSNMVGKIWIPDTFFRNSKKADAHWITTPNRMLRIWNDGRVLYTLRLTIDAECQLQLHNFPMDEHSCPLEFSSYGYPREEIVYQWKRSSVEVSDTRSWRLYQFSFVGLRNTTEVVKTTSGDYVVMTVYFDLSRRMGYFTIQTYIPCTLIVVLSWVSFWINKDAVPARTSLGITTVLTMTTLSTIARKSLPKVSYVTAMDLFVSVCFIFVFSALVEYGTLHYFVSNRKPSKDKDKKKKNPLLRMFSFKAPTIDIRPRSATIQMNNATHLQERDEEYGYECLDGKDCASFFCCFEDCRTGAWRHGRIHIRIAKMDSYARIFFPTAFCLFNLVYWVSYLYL
Excerpt: Studies carried out by the applicant have shown that xenon has virtually no effect on GABAA receptors.

[3] = inhibitory currents + 3.4 mM xenon

SMILES: [Xe] [xenon]
- Ostwald water/gas partition coefficient ([1]; 37° C.): 0.0887
- Bunsen water/gas partition coefficient ([1]; room temperature): 0.0965
- effect on inhibitory (GABAergic) postsynaptic currents ([2]; 3.4 mM xenon): negligible effects; also recorded: affected neither the peak value, nor the time course; also recorded: no significant effect
- Ipeak % change (means ± SEM) ([2]; inhibitory currents + 3.4 mM (~1 MAC) xenon): −3.1 ± 2.2%
- Decay half-time % change (means ± SEM) [2, 3]: −3.4 ± 2.4%
- Ifast % change (means ± SEM) [2, 3]: −4.3 ± 2.8%
- Islow % change (means ± SEM) [2, 3]: 18.8 ± 12.4%
- Qfast % change (means ± SEM) [2, 3]: 1.5 ± 7.2%
- Qslow % change (means ± SEM) [2, 3]: 12.6 ± 8.4%
- Total charge transfer % change (means ± SEM) [2, 3]: −2.3 ± 3.9%
- τfast % change (means ± SEM) [2, 3]: −1.3 ± 3.5%
- τslow % change (means ± SEM) [2, 3]: 0.8 ± 6.0%
- effect on currents activated by 3 μM GABA (GABAA receptors): not significantly affected
